pIC50: −log10 of the molar value. No end group written: not given here.
Assays:
[1] = target: HLA-DRA1*0101, DRB1*0405 (DR4*05) (Homo sapiens, UniProt P01903+P01911, A100R/A169T/D86S/F76Y/I96L/K127E/L162R/M171V/N62H/P40V/Q125Y/R42H/S133A/S149N/S66Y/V115G/V209L/W38E); test: DR4*05
Procedure: (§1) Table printed on a drawing sheet, Figure 9
Head of the field: DR4*05
(§2) The patent's description of the figure: FIG. 9: Diverse patterns of in vitro peptide-MHC II binding for peptides 9K1, 17JK and 15N3K. Binding of peptides 9K1, 17JK and 15N3K to recombinant HLA-DRA1*0101, DRB1*0101 (DR1), DRB1*1501 (DR2), DRB1*0301 (DR3), DRB1*0401 (DR4), DRB1*1101 (DR11), DRB1*0405 (DR4*05) and DRB1*0901 (DR9) was assessed in vitro. IC50 values (µM) are presented and colour-coded per HLA-DR molecule. Low values (green) indicate strong binding, high values (red) indicate low(er) binding.
FIG. 9 depicts IC50 (µM) values of peptides 9K1K, 17JK and 15N3K binding to the indicated HLA-DR molecules and competing with a known competitor peptide. Values should be compared only within each HLA-DR molecule. Low IC50 values (green) indicate the strongest binder per HLA-DR molecule. Highest values per HLA-DR molecule (red) are indicative of the lowest binder for that HLA-DR molecule. Intermediate values are indicated in orange. […] So, combining the peptides into a cocktail treatment, makes the treatment less restricted to a certain HLA-DR type.
(§3) First copying reader's note: The sheet prints no unit; per the patent description the values are IC50 (µM) for peptide binding to the named HLA-DR molecules, with cell shading coding relative binding strength per HLA-DR molecule.

[2] = target: HLA-DRA1*0101, DRB1*0101 (DR1) (Homo sapiens, UniProt P01903+P01911, A100R/D57E/F55L/F60I/F76Y/I96L/L162R/M171V/P40L/Q125E/R42F/V115G/Y59C); test: DR1
Procedure: as §1, §2
(§4) FIG. 9 depicts IC50 (µM) values of peptides 9K1K, 17JK and 15N3K binding to the indicated HLA-DR molecules and competing with a known competitor peptide. Values should be compared only within each HLA-DR molecule. Low IC50 values (green) indicate the strongest binder per HLA-DR molecule. Highest values per HLA-DR molecule (red) are indicative of the lowest binder for that HLA-DR molecule. Intermediate values are indicated in orange. […]
as §3
Where the first naming reader finds the target: description_of_the_figure: recombinant HLA-DRA1*0101, DRB1*0101 (DR1)

[3] = tested on: SAg-specific hybridoma cells with fresh or fixed APC (VAVY) cells, MHCII; test: Antigen processing independent presentation system (APIPS) assay; format: cell-based, DR3tg mice; settings: 10 or 25 µg/ml peptide, IL-2 ELISA after 48 h
Procedure: FIG. 10: Variants of peptide 15N3K are apitopes. The ability of variants of the 15N3K peptide to behave as apitopes (i.e. bind to an MHCII molecule and be presented to a T cell by an antigen-presenting cell without undergoing antigen processing) was tested using an APIPS assay. DR3tg mice were immunised with SAg and hybridoma’s were generated. 5*10^4 SAg-specific hybridoma cells were cultured with 5*10^4 fresh or fixed commercial APC (VAVY) cells. Cultures were stimulated with 10 or 25 µg/ml of peptide, as indicated in the graph. T cell activation was measured by IL-2 ELISA on supernatants collected after 48 h. The graph represents the mean of duplicate measurements ± SEM.
Apitopes (Antigen Processing-Independent epiTOPES) are capable of binding to an MHCII molecule and stimulating a response from SAg-specific T cells without further antigen processing. Variants of peptide 15N3K (SEQ ID NO: 3) were tested for their ability to bind to an MHCII molecule and be presented to a T cell hybridoma without further antigen processing in an in vitro antigen processing independent presentation system (APIPS) assay. In other words, peptides consisting of parts of peptide 15N3K and peptides with various degrees of sequence identity with peptide 15N3K were tested for their ability to behave as apitopes.
All but three of the peptides are apitopes.
Antigen-specific hybridoma clones were tested for their reactivity to the peptides, presented by fixed or not fixed (fresh) cells (APCs). 5x10^4 cells were cultured with 10 µg/ml and 25 µg/ml peptide and 5x10^4 fixed or fresh APCs. To fix APCs, cells were incubated with 0.5% paraformaldehyde (Merck, Darmstadt, Germany) (pH7) for 5 min at room temperature (RT). The fixation reaction was stopped by adding 0.4 M glycine (Sigma-Aldrich) and washing the cells in RPMI-10% FCS. After 48 h, antigen-induced IL-2 production was measured by ELISA (R&D Systems, Abingdon, UK).

[4] = target: HLA-DRA1*0101, DRB1*0401 (DR4) (Homo sapiens, UniProt P01903+P01911, A100K/A169T/F76Y/I96L/K127E/L162R/M171V/N62H/P40V/Q125Y/R42H/S133A/S149N/S66Y/V115G/V209L/W38E); test: DR4
Procedure: as §1, §2, §4, §3
Where the first naming reader finds the target: description_of_the_figure: recombinant HLA-DRA1*0101, DRB1*0101 (DR1), DRB1*1501 (DR2), DRB1*0301 (DR3), DRB1*0401 (DR4)

| pIC50 [1] | pIC50 [2] | Substance | Apitope [3] | pIC50 [4] |
| --- | --- | --- | --- | --- |
| 4.76 | 5.67 | KKKLTFRRDLYFSRVQVYKKK-NH2 [17JK] | – | – |
| – | – | KKKVIFKKISRDKSVTIYLGKKK-NH2 [15N3K] | Yes | 6.08 |
